In patent US20240317721A1, “PYRAZOLYL DERIVATIVES AS INHIBITORS OF THE KRAS MUTANT PROTEIN” (NOVARTIS AG, priority 2021, published 2024):

The compounds below were run against KRasG12C (M1-K169, biotinylated on the N-terminus) (Homo sapiens (Human), UniProt P01116, G12C) (assay: Covalent competition assay: scintillation proximity assay (SPA) quantifying covalent modification of KRASG12C). Settings: competition with radiolabeled covalent probe (Compound B/Compound A), 2 hours incubation, 10 nM KRasG12C.
Format: binding
Method in brief: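 Scintillation proximity readout after streptavidin bead capture (30 min) of biotinylated KRasG12C(M1-K169):GDP, 10 nM final, which was covalently labelled over 2 h by 25 nM radio-probe plus 475 nM cold probe unless blocked by compound.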

Row | IC50 | SMILES
1 | 13 nM | C=CC(=O)N1CC2(CC(n3nc(N4CC[C@@H](CN5CCOCC5)CC4(C)C)c(-c4c(Cl)c(C)cc5[nH]nc(N)c45)c3C)C2)C1 (single isomer, unassigned) [Example 242a]
2 | 49700 nM | C=CC(=O)N1CC2(CC(n3nc(N4CCN(C(C)=O)CC4)c(-c4c(Cl)ccc5[nH]ncc45)c3C)C2)C1C (single isomer, unassigned) [Example 197b, 1-(6-(3-(4-acetylpiperazin-1-yl)-4-(5-chloro-1H-indazol-4-yl)-5-methyl-1H-pyrazol-1-yl)-1-methyl-2-azaspiro[3.3]heptan-2-yl)prop-2-en-1-one]
3 | 1600 nM | C=CC(=O)N1CC2(CC(n3nc(N4CCC(C(=O)N5CCN(C)CC5)CC4(C)C)c(-c4c(Cl)c(Cl)cc5[nH]ncc45)c3C)C2)C1 (single isomer, unassigned) [Example 211a, 1-(6-(4-(5,6-dichloro-1H-indazol-4-yl)-3-(2,2-dimethyl-4-(4-methylpiperazine-1-carbonyl)piperidin-1-yl)-5-methyl-1H-pyrazol-1-yl)-2-azaspiro[3.3]heptan-2-yl)prop-2-en-1-one]
4 | > 50000 nM | C=CC(=O)N1CC2(CC(n3nc(N4CCOCC4(C)C)c(-c4c(Cl)c(C)cc5[nH]ncc45)c3C)C2)C1 (single isomer, unassigned) [Example 22a, 1-(6-(4-(5-chloro-6-methyl-1H-indazol-4-yl)-3-(3,3-dimethylmorpholino)-5-methyl-1H-pyrazol-1-yl)-2-azaspiro[3.3]heptan-2-yl)prop-2-en-1-one]
5 | 2100 nM | C=CC(=O)N1CC2(CC(n3nc(N4CC(c5cccnc5)C4)c(-c4c(Cl)c(C)cc5[nH]ncc45)c3C)C2)C1 (single isomer, unassigned) [Example 37b, 1-(6-(4-(5-chloro-6-methyl-1H-indazol-4-yl)-5-methyl-3-(3-(pyridin-3-yl)azetidin-1-yl)-1H-pyrazol-1-yl)-2-azaspiro[3.3]heptan-2-yl)prop-2-en-1-one]
6 | > 5000 nM | C=CC(=O)N1CC2(CC(n3nc(N4CC[C@@H](CN(C)CC(=O)N5CCCC5)CC4(C)C)c(-c4c(Cl)c(Cl)cc5[nH]ncc45)c3C)C2)C1 (single isomer, unassigned) [Example 252a]
7 | 766 nM | C=CC(=O)N1CC2(CC(n3nc(N4CCN(C5CCOCC5)C[C@]4(C)COC)c(-c4c(Cl)c(C)cc5[nH]ncc45)c3C)C2)C1 (single isomer, unassigned) [Example 149a]
8 | 56 nM | C=CC(=O)N1CC2(CC(n3nc(N4CCN(CC(C)(C)O)C[C@@]4(C)CC)c(-c4c(Cl)c(C)cc5[nH]ncc45)c3C)C2)C1 (single isomer, unassigned) [Example 164b]
9 | 2900 nM | C=CC(=O)N1CC2(CC(n3nc(N4CCC(C(=O)N(C)C)CC4(C)C)c(-c4c(Cl)c(C)cc5[nH]ncc45)c3C)C2)C1 (single isomer, unassigned) [Example 99a, 1-(1-(2-acryloyl-2-azaspiro[3.3]heptan-6-yl)-4-(5-chloro-6-methyl-1H-indazol-4-yl)-5-methyl-1H-pyrazol-3-yl)-N,N,2,2-tetramethylpiperidine-4-carboxamide]
10 | > 5000 nM | C=CC(=O)N1CC2(CC(n3nc(N4CCN(C[C@@H]5COCCO5)C[C@]4(C)CC)c(-c4c(Cl)c(C)cc5[nH]ncc45)c3C)C2)C1C (single isomer, unassigned) [Example 199a]
11 | 12 nM | C=CC(=O)N1CC2(CC(n3nc(N4CCC5(CN(C6COC6)C5)CC45CCC5)c(-c4c(Cl)c(C)cc5[nH]ncc45)c3C)C2)C1 (single isomer, unassigned) [Example 93b, 1-(6-(4-(5-chloro-6-methyl-1H-indazol-4-yl)-5-methyl-3-(2-(oxetan-3-yl)-2,10-diazadispiro[3.1.3^6.3^4]dodecan-10-yl)-1H-pyrazol-1-yl)-2-azaspiro[3.3]heptan-2-yl)prop-2-en-1-one]
12 | 137 nM | C=CC(=O)N1CC2(CC(n3nc(N4CCC(CN5C[C@@H]6OCCO[C@@H]6C5)CC4(C)C)c(-c4c(Cl)c(Cl)cc5[nH]ncc45)c3C)C2)C1 (single isomer, unassigned) [Example 232b]
13 | 779 nM | C=CC(=O)N1CC2(CC(n3nc(N4CC[C@@H](CN5CC6OCCN(C)C6C5)CC4(C)C)c(-c4c(Cl)c(Cl)cc5[nH]ncc45)c3C)C2)C1 (single isomer, unassigned) [Example 259a, 1-(6-(4-(5,6-dichloro-1H-indazol-4-yl)-3-((R)-2,2-dimethyl-4-(((4aR*,7aS*)-4-methylhexahydropyrrolo[3,4-b][1,4]oxazin-6(2H)-yl)methyl)piperidin-1-yl)-5-methyl-1H-pyrazol-1-yl)-2-azaspiro[3.3]heptan-2-yl)prop-2-en-1-one]
14 | 10 nM | C=CC(=O)N1CC2(CC(n3nc(N4CCC(N(C)C5COC5)CC45CCC5)c(-c4c(Cl)c(C)cc5[nH]ncc45)c3C)C2)C1 (single isomer, unassigned) [Example 51a, 1-(6-(4-(5-chloro-6-methyl-1H-indazol-4-yl)-5-methyl-3-(8-(methyl(oxetan-3-yl)amino)-5-azaspiro[3.5]nonan-5-yl)-1H-pyrazol-1-yl)-2-azaspiro[3.3]heptan-2-yl)prop-2-en-1-one]
15 | > 5000 nM | C=CC(=O)N1CC2(CC(n3nc(N4CC[C@@H](CN5CC6(CCN(S(C)(=O)=O)C6)C5)CC4(C)C)c(-c4c(Cl)c(Cl)cc5[nH]ncc45)c3C)C2)C1 (single isomer, unassigned) [Example 297a]
16 | 8 nM | C=CC(=O)N1CC2(CC(n3nc(N4CC[C@@H](CN5CCN6C(=O)N(C)CC6C5)CC4(C)C)c(-c4c(Cl)c(Cl)cc5[nH]ncc45)c3C)C2)C1 (single isomer, unassigned) [Example 263b]
17 | 114 nM | C=CC(=O)N1CC2(CC(n3nc(N4CCN(CCO)CC4(C)C)c(-c4c(Cl)c(C)cc5[nH]ncc45)c3C)C2)C1 (single isomer, unassigned) [Example 163b, 1-(6-(4-(5-chloro-6-methyl-1H-indazol-4-yl)-3-(4-(2-hydroxyethyl)-2,2-dimethylpiperazin-1-yl)-5-methyl-1H-pyrazol-1-yl)-2-azaspiro[3.3]heptan-2-yl)prop-2-en-1-one]
18 | 2800 nM | C=CC(=O)N1CC2(CC(n3nc(N4CCC(N5CC6COCC(C5)O6)CC4(C)C)c(-c4c(Cl)c(C)cc5[nH]ncc45)c3C)C2)C1 (single isomer, unassigned) [Example 119a, 1-(6-(3-(4-(3,9-dioxa-7-azabicyclo[3.3.1]nonan-7-yl)-2,2-dimethylpiperidin-1-yl)-4-(5-chloro-6-methyl-1H-indazol-4-yl)-5-methyl-1H-pyrazol-1-yl)-2-azaspiro[3.3]heptan-2-yl)prop-2-en-1-one]
19 | 8 nM | C=CC(=O)N1CC2(CC(n3nc(N4CC[C@@H](CN5CC6(CCS(=O)(=O)C6)C5)CC4(C)C)c(-c4c(Cl)c(Cl)cc5[nH]ncc45)c3C)C2)C1 (single isomer, unassigned) [Example 254b]
20 | 9 nM | C=CC(=O)N1CC2(CC(n3nc(N4CC[C@@H](CN5CC6(CCCO6)C5)CC4(C)C)c(-c4c(Cl)c(Cl)cc5[nH]ncc45)c3C)C2)C1 (single isomer, unassigned) [Example 234b]
21 | 3800 nM | C=CC(=O)N1CC2(CC(n3nc(N4CCC(N5CCOCC5)CC4(C)C)c(-c4c(Cl)c(C)cc5[nH]ncc45)c3C)C2)C1 (single isomer, unassigned) [Example 34a, 1-(6-(4-(5-chloro-6-methyl-1H-indazol-4-yl)-3-(2,2-dimethyl-4-morpholinopiperidin-1-yl)-5-methyl-1H-pyrazol-1-yl)-2-azaspiro[3.3]heptan-2-yl)prop-2-en-1-one]
22 | 13 nM | C=CC(=O)N1CC2(CC(n3nc(N4CCN(C5CCOCC5)C[C@]4(C)CCOC)c(-c4c(Cl)c(C)cc5[nH]ncc45)c3C)C2)C1 (single isomer, unassigned) [Example 87a]
23 | 52 nM | C=CC(=O)N1CC2(CC(n3nc(N4CC[C@@H](CN5CC6CCC(C5)O6)CC4(C)C)c(-c4c(Cl)c(Cl)cc5[nH]ncc45)c3C)C2)C1 (single isomer, unassigned) [Example 314b]
24 | 23 nM | C=CC(=O)N1CC2(CC(n3nc(N4CCC(N5C[C@H](OC)[C@H](OC)C5)CC4(C)C)c(-c4c(Cl)c(C)cc5[nH]ncc45)c3C)C2)C1 (single isomer, unassigned) [Example 102b]
25 | > 50000 nM | C=CC(=O)N1CC2(CC(n3nc(N4[C@@H](C)CN(C(C)=O)C[C@@H]4C)c(-c4c(Cl)c(C)cc5[nH]ncc45)c3C)C2)C1 (single isomer, unassigned) [Example 56a]
26 | 4000 nM | C=CC(=O)N1CC2(CC(n3nc(N4CC[C@@H](CN5CC6(O)CC5C6)CC4(C)C)c(-c4c(Cl)c(Cl)cc5[nH]ncc45)c3C)C2)C1 (single isomer, unassigned) [Example 293a]
27 | 121 nM | C=C(F)C(=O)N1CC2(CC(n3nc(N4CCN(C[C@@H]5COCCO5)C[C@]4(C)CC)c(-c4c(Cl)c(C)cc5[nH]ncc45)c3C)C2)C1 (single isomer, unassigned) [Example 174b]
28 | 15 nM | C=CC(=O)N1CC2(CC(n3nc(N4CCN(C5COC5)CC4(C)C)c(-c4c(Cl)c(Cl)cc5[nH]ncc45)c3C)C2)C1 (single isomer, unassigned) [Example 73b, 1-(6-(4-(5,6-dichloro-1H-indazol-4-yl)-3-(2,2-dimethyl-4-(oxetan-3-yl)piperazin-1-yl)-5-methyl-1H-pyrazol-1-yl)-2-azaspiro[3.3]heptan-2-yl)prop-2-en-1-one]

Row | SMILES | IC50
29 | C=CC(=O)N1CC2(CC(n3nc(N4CCC(CN5CC6CC(C5)O6)CC4(C)C)c(-c4c(Cl)c(Cl)cc5[nH]ncc45)c3C)C2)C1 (single isomer, unassigned) [Example 228b, 1-(6-(3-(4-((6-oxa-3-azabicyclo[3.1.1]heptan-3-yl)methyl)-2,2-dimethylpiperidin-1-yl)-4-(5,6-dichloro-1H-indazol-4-yl)-5-methyl-1H-pyrazol-1-yl)-2-azaspiro[3.3]heptan-2-yl)prop-2-en-1-one] | 281 nM
